Results reported in patent publication US8952024B2, “Herbicidal pyrimidone derivatives” (E I du Pont de Nemours and Company, priority 2009, dated 2015).
Read-outs that look alike come from different tables or passages of the source.

Assays:
Assay type in all cases: in vivo
[1] = tested on: chickweed (Stellaria media); assay: Test B postemergence plant response
Outline: (§1)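 Visual ratings from 0 (no effect) to 100 (complete control), made against controls 13–15 days after treatment, kept in a greenhouse. Compounds were applied postemergence to potted plants at the 1- to 4-leaf stage (2–18 cm).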

[2] = tested on: canarygrass (Phalaris minor); assay: Test B postemergence plant response
Outline: as §1

[3] = tested on: winter barley (Hordeum vulgare); assay: Test B postemergence plant response
Outline: as §1

[4] = tested on: windgrass (Apera spica-venti); assay: Test B postemergence plant response
Outline: as §1

[5] = tested on: nightshade (eastern black nightshade, Solanum ptycanthum); assay: Test B pre-/postemergence plant response; conditions: Preemergence
Outline: (§2)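 Test compounds, formulated in a non-phytotoxic solvent mixture with surfactant, are applied to the soil surface (loam and sand blend) right after seeding, or sprayed over plants at the 1- to 4-leaf stage grown in peat moss/vermiculite medium. After 13 to 15 days under glasshouse conditions, each species is scored visually from 0 (no effect) to 100 (complete control) against controls.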

[6] = tested on: wheat (Triticum aestivum); assay: Test B pre-/postemergence plant response; conditions: for plant injury at 31 g/ha: 31 g ai/ha; for plant injury at 125 g/ha: 125 g ai/ha
Outline: as §2

[7] = tested on: pigweed (Amaranthus retroflexus); assay: Test B pre-/postemergence plant response; conditions: for pest or weed control at 31 g/ha: 31 g ai/ha; for pest or weed control at 125 g/ha: 125 g ai/ha
Outline: as §2

[8] = tested on: galium (catchweed bedstraw, Galium aparine); assay: Test B pre-/postemergence plant response; conditions: Preemergence
Outline: as §2

[9] = 62 g ai/ha, postemergence, 0 is no effect, 100 is complete control, 13 to 15 days
[10] = 31 g ai/ha, scale 0 to 100 (0 no effect, 100 complete control)
[11] = 62 g ai/ha, scale 0 to 100, 0 no effect, 100 complete control
[12] = Preemergence, 250 g ai/ha, 0 to 100 scale

COCCCn1c(-c2ccccc2)ncc(C(=O)C2=C(O)CCCC2=O)c1=O [Compound 81, 5-[(2-hydroxy-6-oxo-cyclohexen-1-yl)carbonyl]-3-(3-methoxypropyl)-2-phenyl-4(3H)-pyrimidinone]
Chickweed plant response rating (0 to 100 scale) [1, 9]: 98 | pest or weed control at 31 g/ha ([1]; Stellaria media, post-emergence, 360 h, 31 g ai/ha, postemergence, scale 0 to 100, 0 is no effect, 100 is complete control, read-out: Plant response rating, Chickweed): 95% | pest or weed control at 125 g/ha ([1]; Stellaria media, post-emergence, 360 h, Postemergence, 125 g ai/ha, visual rating after 13 to 15 days, scale 0 (no effect) to 100 (complete control)): 98% | pest or weed control at 250 g/ha ([1]; Stellaria media, post-emergence, 360 h, Postemergence, 250 g ai/ha, scale 0 to 100 (0 no effect, 100 complete control), read-out: Plant response rating, Chickweed): 100% | Canarygrass plant response rating (0 to 100 scale) [2, 9]: 5 | pest or weed control at 31 g/ha ([2]; Phalaris minor, post-emergence, 360 h, 31 g ai/ha, postemergence, scale 0 to 100, 0 is no effect, 100 is complete control, read-out: Plant response rating, Canarygrass): 0% | pest or weed control at 125 g/ha ([2]; Phalaris minor, post-emergence, 360 h, Postemergence, 125 g ai/ha, visual rating after 13 to 15 days, scale 0 (no effect) to 100 (complete control)): 10% | pest or weed control at 250 g/ha ([2]; Phalaris minor, post-emergence, 360 h, Postemergence, 250 g ai/ha, scale 0 to 100 (0 no effect, 100 complete control), read-out: Plant response rating, Canarygrass): 20% | Barley plant response rating (0 to 100 scale) [3, 9]: 0 | plant injury at 31 g/ha ([3]; Hordeum vulgare, post-emergence, 31 g ai/ha, postemergence, scale 0 to 100, 0 is no effect, 100 is complete control, read-out: Plant response rating, Barley): 0% | plant injury at 125 g/ha ([3]; Hordeum vulgare, post-emergence, Postemergence, 125 g ai/ha, visual rating after 13 to 15 days, scale 0 (no effect) to 100 (complete control)): 0% | plant injury at 250 g/ha ([3]; Hordeum vulgare, post-emergence, Postemergence, 250 g ai/ha, scale 0 to 100 (0 no effect, 100 complete control), read-out: Plant response rating, Barley): 5% | Windgrass plant response rating (0 to 100 scale) [4, 9]: 50 | pest or weed control at 31 g/ha ([4]; Apera spica-venti, post-emergence, 360 h, 31 g ai/ha, postemergence, scale 0 to 100, 0 is no effect, 100 is complete control, read-out: Plant response rating, Windgrass): 10% | pest or weed control at 125 g/ha ([4]; Apera spica-venti, post-emergence, 360 h, Postemergence, 125 g ai/ha, visual rating after 13 to 15 days, scale 0 (no effect) to 100 (complete control)): 60% | pest or weed control at 250 g/ha ([4]; Apera spica-venti, post-emergence, 360 h, Postemergence, 250 g ai/ha, scale 0 to 100 (0 no effect, 100 complete control), read-out: Plant response rating, Windgrass): 70% | Plant response rating, Nightshade [5, 10]: 98 | Plant response rating, Nightshade [5, 11]: 98 | Plant response rating, Nightshade ([5]; 125 g ai/ha, scale 0 to 100, 0 no effect, 100 complete control): 98 | Nightshade plant response rating ([5]; 250 g ai/ha, 0 to 100 scale): 100 | Wheat plant response rating (0 to 100 scale) [6, 9]: 20 | Wheat plant response rating [6, 12]: 0 | plant injury at 31 g/ha ([6]; Triticum aestivum, post-emergence, postemergence, scale 0 to 100, 0 is no effect, 100 is complete control, read-out: Plant response rating, Wheat): 5% | plant injury at 125 g/ha ([6]; Triticum aestivum, post-emergence, Postemergence, visual rating after 13 to 15 days, scale 0 (no effect) to 100 (complete control)): 25% | plant injury at 250 g/ha ([6]; Triticum aestivum, post-emergence, Postemergence, 250 g ai/ha, scale 0 to 100 (0 no effect, 100 complete control), read-out: Plant response rating, Wheat): 25% | plant injury at 31 g/ha ([6]; Triticum aestivum, pre-emergence, Preemergence, scale 0 to 100 (0 no effect, 100 complete control), read-out: Plant response rating, Wheat): 0% | plant injury at 62 g/ha ([6]; Triticum aestivum, pre-emergence, Preemergence, 62 g ai/ha, scale 0 to 100 (0 no effect, 100 complete control), read-out: Plant response rating, Wheat): 0% | plant injury at 125 g/ha ([6]; Triticum aestivum, pre-emergence, Preemergence, scale 0 to 100, 0 no effect, 100 complete control, read-out: Plant response rating, Wheat): 0% | Pigweed plant response rating (0 to 100 scale) [7, 9]: 100 | pest or weed control at 31 g/ha ([7]; Amaranthus retroflexus, post-emergence, postemergence, scale 0 to 100, 0 is no effect, 100 is complete control, read-out: Plant response rating, Pigweed): 98% | pest or weed control at 125 g/ha ([7]; Amaranthus retroflexus, post-emergence, Postemergence, visual rating after 13 to 15 days, scale 0 (no effect) to 100 (complete control)): 100% | pest or weed control at 250 g/ha ([7]; Amaranthus retroflexus, post-emergence, Postemergence, 250 g ai/ha, scale 0 to 100 (0 no effect, 100 complete control), read-out: Plant response rating, Pigweed): 100% | pest or weed control at 31 g/ha ([7]; Amaranthus retroflexus, pre-emergence, Preemergence, scale 0 to 100 (0 no effect, 100 complete control), read-out: Plant response rating, Pigweed): 100% | pest or weed control at 62 g/ha ([7]; Amaranthus retroflexus, pre-emergence, Preemergence, 62 g ai/ha, scale 0 to 100 (0 no effect, 100 complete control), read-out: Plant response rating, Pigweed): 100% | pest or weed control at 125 g/ha ([7]; Amaranthus retroflexus, pre-emergence, Preemergence, scale 0 to 100, 0 no effect, 100 complete control, read-out: Plant response rating, Pigweed): 100% | Pigweed plant response rating [7, 12]: 100 | Plant response rating, Galium [8, 10]: 85 | Plant response rating, Galium [8, 11]: 100
